# Measured values published in patent US5597820A, “1, 4-benzoxazine derivative and pharmaceutical compositions containing the same” (Kanebo, Ltd., priority 1994, dated 1997).
# Key:
# Na^+ /H^+ exchange = target: T1, Na^+ /H^+ exchange (Rattus norvegicus, UniProt P26431); test: Na^+ /H^+ Exchange inhibitory activity (sodium propionate-induced swelling of platelets); assay type: cell-based, rat (male Wistar rats); settings: rat platelet-rich plasma, 37° C.
# T1 construct: A supernatant was separated to prepare platelet-rich plasma; endogenous in cells; host or cells: platelets in platelet-rich plasma from male Wistar rats (abdominal aorta blood)
# T1 sequence (P26431 whole entry): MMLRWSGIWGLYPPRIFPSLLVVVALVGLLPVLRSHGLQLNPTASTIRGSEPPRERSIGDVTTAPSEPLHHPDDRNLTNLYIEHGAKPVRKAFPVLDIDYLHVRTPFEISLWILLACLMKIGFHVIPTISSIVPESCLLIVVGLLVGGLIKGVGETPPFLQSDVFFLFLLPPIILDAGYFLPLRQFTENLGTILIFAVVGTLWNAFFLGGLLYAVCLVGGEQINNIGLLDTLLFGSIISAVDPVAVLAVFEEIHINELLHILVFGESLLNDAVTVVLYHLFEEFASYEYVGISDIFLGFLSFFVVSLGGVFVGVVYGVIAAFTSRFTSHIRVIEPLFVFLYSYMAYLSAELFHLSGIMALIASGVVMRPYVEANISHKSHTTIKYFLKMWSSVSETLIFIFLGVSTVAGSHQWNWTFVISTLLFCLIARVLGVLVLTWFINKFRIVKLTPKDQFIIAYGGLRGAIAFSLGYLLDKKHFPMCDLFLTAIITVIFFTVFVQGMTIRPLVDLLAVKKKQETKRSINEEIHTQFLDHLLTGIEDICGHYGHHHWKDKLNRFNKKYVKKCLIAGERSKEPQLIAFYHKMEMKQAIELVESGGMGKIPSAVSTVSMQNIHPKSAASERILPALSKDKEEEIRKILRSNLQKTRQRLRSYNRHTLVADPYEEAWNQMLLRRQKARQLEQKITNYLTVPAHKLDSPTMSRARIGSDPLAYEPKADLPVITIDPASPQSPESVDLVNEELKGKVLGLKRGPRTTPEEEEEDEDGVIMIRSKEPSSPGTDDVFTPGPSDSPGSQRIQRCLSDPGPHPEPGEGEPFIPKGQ
# Procedure: The compounds of the present invention were assessed for their Na^+ /H^+ exchange inhibitory activity based on an activity to inhibit sodium propionate-induced swelling of platelets in accordance with the method of Rosskoph et al. [Journal of Hypertension, 9, 231-238 (1991)].
# First, platelet-rich plasma was prepared in accordance with the method of Mammen et al. [Diabetes Research and Clinical Practice, 9(3), 265-272 (1990)]. Briefly, male Wistar rats weighing 190 to 420 g were abdominally operated under anesthesia with ether and blood was taken from the abdominal aorta. For inhibiting blood coagulation, ACD solution (a mixture of 65 mM citric acid, 85 mM sodium citrate, 11 mM dextrose) was added to blood and this treated blood was centrifuged at 90× g for 10 minutes. A supernatant was separated to prepare platelet-rich plasma.
# Then, a solution of the test compounds in dimethylsulfoxide was added to 140 mM sodium propionate buffer solution. To this mixture was added the platelet-rich plasma prepared above and a decrease in optical density was recorded with the passage of time at 37° C. using a platelet aggregometer (turbidimeter) and a X-Y recorder to calculate a decrease rate in optical density after mixing with platelet-rich plasma [decrease rate in optical density in the presence of the test compounds (D)]. On the other hand, the solvent dimethylsulfoxide alone was used instead of the solution of the test compounds and the decrease in optical density was recorded in the similar manner to calculate a decrease rate in optical density [control (C)]. A swelling inhibitory rate (%) was calculated using the following formula:
# Swelling inhibitory rate (%)=(1-D/C)×100
# [1] = tested on: myocardial infarction lesion; test: Activity to reduce myocardial infarction lesion (rat acute myocardial infarction model); assay type: in vivo, rat (male Sprague-Dawley rats); settings: femoral vein
# Procedure: Using a rat acute myocardial infarction model, the compounds of the present invention were assessed for their activity to reduce myocardial infarction lesion in accordance with the method of Petty et al. [European Journal of Pharmacology, 192, 383-388 (1991)]. Male Sprague-Dawley rats (weighing 320 to 430 g) were anesthetized by intraperitoneal administration of sodium pentobarbital (50 mg/kg). Under anesthesia, the rats were cannulated via trachea and the cannula was linked to a respirator and then the body temperature was maintained at 37° C. The chest of the rats were opened at the left fifth intercostal space and the pericardium was cut open to reveal the heart. Then a solution of the test compound in a mixed solvent of polyethylene glycol 400, ethanol and a physiological saline [3:3:14 (v/v)] was administered into the femoral vein. Ten minutes after the administration of the compound, the origin of the left coronary artery was occluded. After occlusion for 30 minutes, reperfusion was carried out for 2 hours. After reperfusion, the heart was removed and the origin of the left coronary artery was ligated again. The heart was cannulated via the aorta and a 0.025% solution of Evans blue was perfused using a syringe pump to distinguish an ischemic region (not stained with Evans blue) and a non-ischemic region (stained with Evans blue). The ischemic region was incubated in a 0.1% triphenyltetrazolium chloride (TTC) solution at 37° C. for 30 minutes to distinguish a TTC-stained region and a non-stained region (infarction region).
# reperfusion arrhythmia = test: Inhibitory activity against reperfusion arrhythmia (rat acute myocardial infarction model); assay type: in vivo, rat (male Sprague-Dawley rats); settings: femoral vein
# Procedure: Using a rat acute myocardial infarction model, the compounds of the present invention were assessed for their inhibitory activity against reperfusion arrhythmia in accordance with the method of […] al. [European Journal of Pharmacology, 194, 7-10 (1991)]. Male Sprague-Dawley rats (weighing 310 to 490 g) were anesthetized by intraperitoneal administration of sodium pentobarbital (50 mg/kg). Under anesthesia, the rats were cannulated via trachea and the cannula was linked to a respirator. An electrocardiogram (the lead II) was obtained from electrodes attached to the limbs using bioelectric amplifier while maintaining the body temperature at 37° C. The chest of the rats were opened at the left fifth intercostal space and the pericardium was cut open to reveal the heart. Then a solution of the test compound in a mixed solvent of polyethylene glycol 400, ethanol and a physiological saline [3:3:14 (v/v)] was administered into the femoral vein. Ten minutes after the administration of the compound, the origin of the left coronary artery was occluded. After occlusion for 5 minutes, reperfusion was carried out for 10 minutes and a duration (second) of a ventricular fibrillation after reperfusion was measured from the electrocardiogram (mean±standard error, n=3 to 10). The ventricular fibrillation was assessed in accordance with the guideline of The Lambeth Convention [Cardiovascular Research, 22, 447-455 (1988)]. On the other hand, the mixed solvent of polyethylene glycol 400, ethanol and a physiological saline [3:3:14 (v/v)] alone was used as a control and a duration (second) of the ventricular fibrillation was measured in a similar manner. Using male Sprague-Dawley rats weighing 310 to 440 g, the duration (second) of the ventricular fibrillation was measured in the same manner as in Test 1 (n=4 to 10). Using male Sprague-Dawley rats weighing 310 to 400 g, the duration (second) of the ventricular fibrillation was measured in the same manner as in Test 1 (n=4 to 6).
# [2] = Test 2 (Table 4), 0.1 mg/kg, control 146.1 ± 5.9, **: p < 0.01
# [3] = Test 2 (Table 7), 1 mg/kg, control 45.2 ± 4.1, **: p < 0.01
# [4] = Test 3 (Table 5), 0.1 mg/kg, control 171.0 ± 5.8, Example 19 *: p < 0.05, Example 21 **: p < 0.01
SMILES,IC50 (Na^+ /H^+ exchange) [µM],also measured
"N=C(N)NC(=O)c1nc(Cl)c(N)nc1N [Amiloride, amiloride, reference compound]",13,–
"CC(C)N1C(=O)C(C)(C)Oc2cc(C(=O)N=C(N)N)ccc21 [Example 1, N-amidino-2,2-dimethyl-4-(2-propyl)-3-oxo-3,4-dihydro-2H-1,4-benzoxazine-7-carboxamide]",0.2,–
"CC1Oc2cc(C(=O)NC(=N)N)ccc2N(C(C)C)C1=O (centres unmarked) [Example 2, N-amidino-2-methyl-4-(2-propyl)-3-oxo-3,4-dihydro-2H-1,4-benzoxazine-7-carboxamide]",0.094,"Infarction region/ischemic region (%) (mean ± standard error) ([1]; Test 1 (Table 6), 0.01 mg/kg, control 51.4 ± 2.4): 41.7 ± 10.3%; Infarction region/ischemic region (%) (mean ± standard error) ([1]; Test 1 (Table 6), 0.1 mg/kg, control 51.4 ± 2.4): 35.6 ± 3.5%; Infarction region/ischemic region (%) (mean ± standard error) ([1]; Test 1 (Table 6), 1 mg/kg, control 51.4 ± 2.4, **: p < 0.01): 7.2 ± 4.9%; Duration (second) of ventricular fibrillation (mean ± standard error) (reperfusion arrhythmia; Test 1 (Table 3), 0.01 mg/kg, control 92.6 ± 20.2): 118.9 ± 59.4 s; Duration (second) of ventricular fibrillation (mean ± standard error) (reperfusion arrhythmia; Test 1 (Table 3), 0.1 mg/kg, control 92.6 ± 20.2, *: p < 0.05): 19.1 ± 12.4 s; Duration (second) of ventricular fibrillation (mean ± standard error) (reperfusion arrhythmia; Test 1 (Table 3), 1 mg/kg, control 92.6 ± 20.2, *: p < 0.05): 0.0 ± 0.0 s"
"CC(C)N1C(=O)COc2cc(C(=O)NC(=N)N)ccc21 [Example 3, N-amidino-4-(2-propyl)-3-oxo-3,4-dihydro-2H-1,4-benzoxazine-7-carboxamide]",0.17,–
"CCN1C(=O)C(C)Oc2cc(C(=O)NC(=N)N)ccc21 (centres unmarked) [Example 4, N-amidino-4-ethyl-2-methyl-3-oxo-3,4-dihydro-2H-1,4-benzoxazine-7-carboxamide]",0.16,–
"CC(C)N1C(=O)C(C)(C)Oc2ccc(C(=O)NC(=N)N)cc21.Cl [Example 5, N-amidino-2,2-dimethyl-4-(2-propyl)-3-oxo-3,4-dihydro-2H-1,4-benzoxazine-6-carboxamide hydrochloride]",0.12,Duration (second) of ventricular fibrillation (mean ± standard error) (reperfusion arrhythmia; [2]): 80.2 ± 27.8 s
"CCN1C(=O)C(C)Oc2ccc(C(=O)NC(=N)N)cc21 (centres unmarked) [Example 6, N-amidino-4-ethyl-2-methyl-3-oxo-3,4-dihydro-2H-1,4-benzoxazine-6-carboxamide]",0.29,–
"CCN1C(=O)C(C)(C)Oc2ccc(C(=O)NC(=N)N)cc21 [Example 7, N-amidino-2,2-dimethyl-4-ethyl-3-oxo-3,4-dihydro-2H-1,4-benzoxazine-6-carboxamide]",0.38,–
"CC1Oc2cc(C(=O)NC(=N)N)ccc2NC1=O (centres unmarked) [Example 8, N-amidino-2-methyl-3-oxo-3,4-dihydro-2H-1,4-benzoxazine-7-carboxamide]",0.81,–
"CCC1Oc2cc(C(=O)NC(=N)N)ccc2N(C(C)C)C1=O (centres unmarked) [Example 9, N-amidino-2-ethyl-4-(2-propyl)-3-oxo-3,4-dihydro-2H-1,4-benzoxazine-7-carboxamide]",0.034,–
"CC1Oc2cc(C(=O)NC(=N)N)ccc2N(C2CCCC2)C1=O (centres unmarked) [Example 10, N-amidino-4-cyclopentyl-2-methyl-3-oxo-3,4-dihydro-2H-1,4-benzoxazine-7-carboxamide]",0.062,–
"CCN1C(=O)COc2cc(C(=O)NC(=N)N)ccc21 [Example 12, N-amidino-4-ethyl-3-oxo-3,4-dihydro-2H-1,4-benzoxazine-7-carboxamide]",0.36,–
"CCC1Oc2cc(C(=O)NC(=N)N)ccc2N(CC)C1=O (centres unmarked) [Example 13, N-amidino-2,4-diethyl-3-oxo-3,4-dihydro-2H-1,4-benzoxazine-7-carboxamide]",0.083,–
"CC[C@@H]1Oc2cc(C(=O)NC(=N)N)ccc2N(C(C)C)C1=O [Example 14, (S)-N-Amidino-2-ethyl-4-(2-propyl)-3-oxo-3,4-dihydro-2H-1,4-benzoxazine-7-carboxamide]",0.073,–
"CC[C@H]1Oc2cc(C(=O)NC(=N)N)ccc2N(C(C)C)C1=O [Example 15, (R)-N-Amidino-2-ethyl-4-(2-propyl)-3-oxo-3,4-dihydro-2H-1,4-benzoxazine-7-carboxamide]",0.036,–
"CC[C@@H]1Oc2cc(C(=O)NC(=N)N)ccc2N(CC)C1=O [Example 16, (S)-N-amidino-2,4-diethyl-3-oxo-3,4-dihydro-2H-1,4-benzoxazine-7-carboxamide]",0.045,–
"CC[C@H]1Oc2cc(C(=O)NC(=N)N)ccc2N(CC)C1=O [Example 17, (R)-N-amidino-2,4-diethyl-3-oxo-3,4-dihydro-2H-1,4-benzoxazine-7-carboxamide]",0.071,–
"CC[C@H]1Oc2cc(C(=O)NC(=N)N)ccc2N(C(C)C)C1=O.Cl [Example 18, (R)-N-Amidino-2-ethyl-4-(2-propyl)-3-oxo-3,4-dihydro-2H-1,4-benzoxazine-7-carboxamide hydrochloride]",0.038,"Infarction region/ischemic region (%) (mean ± standard error) [1, 3]: 21.7 ± 5.5%; Duration (second) of ventricular fibrillation (mean ± standard error) (reperfusion arrhythmia; Test 2 (Table 4), 0.01 mg/kg, control 146.1 ± 5.9): 75.5 ± 29.2 s; Duration (second) of ventricular fibrillation (mean ± standard error) (reperfusion arrhythmia; [2]): 31.4 ± 20.6 s; Duration (second) of ventricular fibrillation (mean ± standard error) (reperfusion arrhythmia; Test 2 (Table 4), 1 mg/kg, control 146.1 ± 5.9, **: p < 0.01): 0.0 ± 0.0 s"
"CC[C@H]1Oc2cc(C(=O)NC(=N)N)ccc2N(C(C)C)C1=O.CS(=O)(=O)O [Example 19, (R)-N-Amidino-2-ethyl-4-(2-propyl)-3-oxo-3,4-dihydro-2H-1,4-benzoxazine-7-carboxamide methanesulfonate]",0.044,"Infarction region/ischemic region (%) (mean ± standard error) [1, 3]: 20.7 ± 5.2%; Duration (second) of ventricular fibrillation (mean ± standard error) (reperfusion arrhythmia; Test 3 (Table 5), 0.01 mg/kg, control 171.0 ± 5.8): 116.8 ± 40.2 s; Duration (second) of ventricular fibrillation (mean ± standard error) (reperfusion arrhythmia; [4]): 36.5 ± 32.2 s; Duration (second) of ventricular fibrillation (mean ± standard error) (reperfusion arrhythmia; Test 3 (Table 5), 1 mg/kg, control 171.0 ± 5.8, *: p < 0.05): 0.0 ± 0.0 s"
"CC[C@@H]1Oc2cc(C(=O)NC(=N)N)ccc2N(CC)C1=O.Cl [Example 20, (S)-N-amidino-2,4-diethyl-3-oxo-3,4-dihydro-2H-1,4-benzoxazine-7-carboxamide hydrochloride]",0.049,Duration (second) of ventricular fibrillation (mean ± standard error) (reperfusion arrhythmia; [2]): 27.2 ± 27.2 s
"CC[C@@H]1Oc2cc(C(=O)NC(=N)N)ccc2N(CC)C1=O.CS(=O)(=O)O [Example 21, (S)-N-amidino-2,4-diethyl-3-oxo-3,4-dihydro-2H-1,4-benzoxazine-7-carboxamide methanesulfonate]",0.089,Duration (second) of ventricular fibrillation (mean ± standard error) (reperfusion arrhythmia; [4]): 69.0 ± 31.1 s
